Values joined by “and” are separate entries in the source; they are usually repeats but may differ in a detail not shown here. Equal values may be shown once.
System: gene expression in heart tissue
Experiment: Genome-wide gene expression in heart tissue of old mice fed a resveratrol-supplemented diet (Affymetrix Mouse Genome 430 2.0 array)
Type: in vivo
[1] = anaphase-promoting complex subunit 5, Genebank ID AK003821
[2] = calreticulin 3, Genebank ID AI324734
[3] = casein kinase II, alpha 1 polypeptide, Genebank ID BB283759
[4] = cathepsin B, Genebank ID M14222
[5] = cathepsin Z, Genebank ID NM_022325
[6] = cylindromatosis (turban tumor syndrome), Genebank ID AK013508
[7] = dual specificity phosphatase 6, Genebank ID NM_026268
[8] = dynein, cytoplasmic, heavy chain 1, Genebank ID NM_030238
[9] = dystrophia myotonica kinase, B15, Genebank ID AW108486
[10] = eukaryotic translation elongation factor 2, Genebank ID BC007152
[11] = eukaryotic translation initiation factor 2, subunit 3, structural gene X-linked, Genebank ID NM_012010
[12] = eukaryotic translation initiation factor 3, subunit 10 (theta), Genebank ID AW701127
[13] = eukaryotic translation initiation factor 4, gamma 1, Genebank ID BF227830
[14] = eukaryotic translation initiation factor 4A1, Genebank ID BI656407
[15] = eukaryotic translation initiation factor 4E like 3, Genebank ID AI449084
[16] = expressed sequence AI663987, Genebank ID BB764994
[17] = expressed sequence AW319487, Genebank ID NM_054085
[18] = f-box only protein 9, Genebank ID AK018482
[19] = f-box only protein 9, Genebank ID NM_023605
[20] = furin (paired basic amino acid cleaving enzyme), Genebank ID NM_011046
[21] = gene trap locus 6, Genebank ID BG923744
[22] = glutamyl-prolyl-tRNA synthetase, Genebank ID BM238943
[23] = golgi associated, gamma adaptin ear containing, ARF binding protein 3, Genebank ID BB501734
[24] = heat shock protein 1, beta, Genebank ID BI154147
[25] = homocysteine-inducible, endoplasmic reticulum stress-inducible, ubiquitin-like domain member 1, Genebank ID AI835088
[26] = homocysteine-inducible, endoplasmic reticulum stress-inducible, ubiquitin-like domain member 1, Genebank ID NM_022331
[27] = insulin degrading enzyme, Genebank ID AV027702
[28] = isoprenylcysteine carboxyl methyltransferase, Genebank ID BF462080
[29] = large tumor suppressor 2, Genebank ID BE986745
[30] = lipocalin 7, Genebank ID BC005738
[31] = membrane metallo endopeptidase [BLAST], Genebank ID AV174022
[32] = methionyl aminopeptidase 1, Genebank ID BG064851
[33] = microtubule associated serine/threonine kinase 2, Genebank ID NM_008641
[34] = mitochondrial ribosomal protein L9, Genebank ID AK021196
[35] = mitochondrial ribosomal protein L27, Genebank ID NM_053161
[36] = mitochondrial ribosomal protein L43, Genebank ID NM_053164
[37] = mitogen activated protein kinase kinase kinase 4, Genebank ID U11548
[38] = myotubularin related protein 1, Genebank ID BB381813
[39] = myotubularin related protein 6, Genebank ID BC020019
[40] = neural precursor cell expressed, developmentally down-regulted gene 4, Genebank ID BG073415
[41] = proteasome (prosome, macropain) subunit, alpha type 2, Genebank ID NM_008944
[42] = protein kinase inhibitor, alpha, Genebank ID AK010212
[43] = protein kinase, interferon inducible double stranded RNA dependent activator, Genebank ID NM_011871
[44] = protein phosphatase 1B, magnesium dependent, beta isoform, Genebank ID AJ271833
[45] = protein tyrosine phosphatase 4a2, Genebank ID AW495875
[46] = protein tyrosine phosphatase 4a3, Genebank ID AK014601
[47] = protein tyrosine phosphatase, non-receptor type 21, Genebank ID AW987375
[48] = protein tyrosine phosphatase-like (proline instead of catalytic arginine), member a, Genebank ID BB014781
[49] = puromycin-sensitive aminopeptidase, Genebank ID AK010446
[50] = ribonuclease P2, Genebank ID BG069849
[51] = ribosome binding protein 1, Genebank ID AK019964
[52] = ring finger protein 13, Genebank ID NM_011883
[53] = sarcolemma associated protein, Genebank ID NM_032008
[54] = serum/glucocorticoid regulated kinase, Genebank ID NM_011361
[55] = sialyltransferase 10 (alpha-2,3-sialyltransferase VI), Genebank ID NM_018784
[56] = suppressor of initiator codon mutations, related sequence 1 (S. cerevisiae), Genebank ID BI693609
[57] = synaptojanin 2 binding protein, Genebank ID AK008254
[58] = tousled-like kinase 1, Genebank ID BM244995
[59] = transferrin receptor, Genebank ID AK011596
[60] = transient receptor potential cation channel, subfamily M, member 7, Genebank ID AV320241
[61] = tumor rejection antigen gp96, Genebank ID BE995678
[62] = ubiquitin protein ligase E3 component n-recognin 1, Genebank ID BQ173927
[63] = ubiquitin specific protease 3, Genebank ID BM936366
[64] = ubiquitin specific protease 10, Genebank ID NM_009462
[65] = ubiquitin-conjugating enzyme E2D 3 (UBC4/5 homolog, yeast), Genebank ID AK009276

Oc1ccc(/C=C/c2cc(O)cc(O)c2)cc1 [resveratrol, 3,4′,5-Trihydroxy-trans-stilbene]
share of genes that resembled or exceeded the expression level of the young group (among genes changed by resveratrol treatment, heart): 58.1% | % of res effect [1]: 74.85% | Median RES [1]: 33166 | Median RES (basic leucine zipper and W2 domains 1, Genebank ID AV144956 (three lines), listed as RES): 19500 and 38679 and 25745 | % of res effect (basic leucine zipper and W2 domains 1, Genebank ID AV144956 (three lines), listed as res): 83.81% and 115.0685% and 138.536% | % of res effect (calnexin, Genebank ID BI653492): 100.0356% | Median RES (calnexin, Genebank ID BI653492): 30204 | % of res effect [2]: 114.042% | Median RES [2]: 8927 | % of res effect [3]: 134.9706% | Median RES [3]: 5588 | % of res effect [4]: 76.17% | Median RES [4]: 194089 | % of res effect [5]: 116.4892% | Median RES [5]: 43097 | % of res effect (cullin 3, Genebank ID AV273804): 77.09% | Median RES (cullin 3, Genebank ID AV273804): 22604 | % of res effect [6]: 103.8541% | Median RES [6]: 8255 | expression of genes involved in protein modification (down-regulated in the group of old animals, resveratrol group): these effects were reversed | % of res effect [7]: 107.0693% | Median RES [7]: 13740 | % of res effect [8]: 152.317% | Median RES [8]: 30053 | % of res effect [9]: 145.8017% | Median RES [9]: 62794 | % of res effect [10]: 164.0928% | Median RES [10]: 165689 | % of res effect [11]: 52.7% | Median RES [11]: 10650 | % of res effect [12]: 107.144% | Median RES [12]: 55723 | % of res effect [13]: 137.7081% | Median RES [13]: 73196 | % of res effect [14]: 101.3515% | Median RES [14]: 71501 | % of res effect [15]: 79.59% | Median RES [15]: 14990 | % of res effect (eukaryotic translation initiation factor 4E, Genebank ID BB406487 (two lines), listed as res): 101.5818% and 143.9243% | % of res effect [16]: 178.7778% | Median RES [16]: 12520 | % of res effect [17]: 126.3056% | Median RES [17]: 19940 | % of res effect [18]: 67.8% | Median RES [18]: 6555 | % of res effect [19]: 158.6897% | Median RES [19]: 48649 | % of res effect [20]: 190.9945% | Median RES [20]: 8279 | % of res effect [21]: 134.4155% | Median RES [21]: 40130 | % of res effect [22]: 85.98% | Median RES [22]: 16720 | % of res effect [23]: 171.8414% | Median RES [23]: 5532 | % of res effect [24]: 153.7873% | Median RES [24]: 150912 | % of res effect [25]: 127.2443% | Median RES [25]: 90964 | % of res effect [26]: 133.1523% | Median RES [26]: 107786 | % of res effect [27]: 106.9366% | Median RES [27]: 25035 | % of res effect [28]: 160.1528% | Median RES [28]: 6260 | % of res effect [29]: 56.11% | Median RES [29]: 6754 | % of res effect [30]: 179.6828% | Median RES [30]: 14280 | % of res effect [31]: 119.1558% | Median RES [31]: 8513 | % of res effect [32]: 80.68% | Median RES [32]: 10496 | % of res effect [33]: 161.6802% | Median RES [33]: 45140 | % of res effect [34]: 80.96% | Median RES [34]: 25890 | % of res effect [35]: 182.0376% | Median RES [35]: 91619 | % of res effect [36]: 104.1651% | Median RES [36]: 61436 | % of res effect [37]: 124.4234% | Median RES [37]: 9718 | % of res effect [38]: 78.35% | Median RES [38]: 14340 | % of res effect [39]: 86.67% | Median RES [39]: 16336 | % of res effect [40]: 52.89% | Median RES [40]: 86633 | share of age-changed genes changed in the direction of the group of younger adult mice (of 1285 genes, heart): 45.5% | % of res effect [41]: 104.7586% | Median RES [41]: 139883 | % of res effect [42]: 59.34% | Median RES [42]: 40073 | % of res effect [43]: 171.5674% | Median RES [43]: 13990 | % of res effect [44]: 63.71% | Median RES [44]: 52488 | % of res effect [45]: 71.59% | Median RES [45]: 200548 | % of res effect [46]: 210.2152% | Median RES [46]: 52165 | % of res effect [47]: 218.6485% | Median RES [47]: 4135 | % of res effect [48]: 76.7738% | Median RES [48]: 98966 | % of res effect [49]: 212.0408% | Median RES [49]: 19697 | expression of genes related to protein synthesis and protein folding (reduced in old animals, old animals fed resveratrol-supplemented diet): upregulated to or close to the level found in young animals | % of res effect [50]: 103.1963% | Median RES [50]: 23730 | % of res effect [51]: 152.3511% | Median RES [51]: 37971 | % of res effect [52]: 142.3463% | Median RES [52]: 33170 | % of res effect [53]: 86.14% | Median RES [53]: 11160 | Median RES (serine/threonine kinase 17b (apoptosis-inducing), Genebank ID AV173139 (two lines), listed as RES): 8039 and 12069 | % of res effect (serine/threonine kinase 17b (apoptosis-inducing), Genebank ID AV173139 (two lines), listed as res): 97.38% and 163.165% | % of res effect [54]: 173.4519% | Median RES [54]: 72667 | % of res effect [55]: 87.76% | Median RES [55]: 16650 | % of res effect [56]: 80.5962% | Median RES [56]: 203121 | % of res effect [57]: 121.5779% | Median RES [57]: 40710 | number of genes at a level of 80-90% compared to the young group (text b59, heart): 62 | number of genes that reached a level of 70-80% (text b59, heart): 53 | % of res effect [58]: 79.5126% | Median RES [58]: 4589 | % of res effect [59]: 54.0373% | Median RES [59]: 86773 | % of res effect [60]: 129.8764% | Median RES [60]: 19508 | % of res effect [61]: 94.11% | Median RES [61]: 53900 | % of res effect [62]: 97.81% | Median RES [62]: 7571 | % of res effect [63]: 151.8677% | Median RES [63]: 9725 | % of res effect [64]: 186.31% | Median RES [64]: 12090 | % of res effect [65]: 69.45% | Median RES [65]: 40250 | number of genes changed in the direction of the group of younger adult mice (within the 1285 genes significantly changed between young and old mice (at least 1.25-fold, p<0.01), heart): 585
